Laboratory results reported in paper PMC9542285, “Novel amides of mycophenolic acid and some heterocyclic derivatives as immunosuppressive agents” (Journal of Enzyme Inhibition and Medicinal Chemistry, 2022).

Assays:
[1] = system: PBMCs; test: In vitro cytotoxicity assay with XTT dye, PBMCs; format: cell-based, human; conditions: Homo sapiens, PBMC, 72 h incubation then 24 h XTT, read-out: IC50 PBMCs (XTT test)
Protocol: (§1) Figure 2. Representative dose-response curve to determine the IC50 of MPA and A2. […] Next, plates were incubated for 24 h with XTT reagent. The conversion of water-soluble yellow tetrazolium XTT salt into orange formazan was monitored by measuring the optical density at 450 nm on microplate spectrophotometer. For XTT assay at least three experiments were performed and values are presented as mean ± SD.
(§2) The cytotoxic effect of derivatives of MPA was measured using in vitro 2,3-bis(2-methoxy-4-nitro-5-sulfophenyl)-2H-tetrazolium-5-carboxanilide (XTT)-based assay (Roche, Basel, Swiss). PBMCs suspended in complete X–VIVO20 medium and T-Jurkat cells suspended in complete RPMI-1640 medium were added on a 96-well plate at a concentration of 5 × 10^5 cells/50 µL/well. […] As a background control we used medium without cells, as a positive control we used cells untreated with compounds. After 48 h for T-Jurkat cells and 72 h for PBMCs of incubation in a humidified atmosphere with 5% CO2 at 37 °C, 50 µL of XTT reagent (freshly prepared according to the manufacturer’s procedure) was added to all samples. Plates were incubated for 24 h (5% CO2 at 37 °C). The conversion of water-soluble yellow tetrazolium XTT salt into orange formazan was monitored by measuring the optical density (OD) at 450 nm on Agilent BioTek Epoch Microplate Spectrophotometer (Agilent Technologies, Santa Clara, CA), with a background wavelength at 690 nm. […] Each sample was performed in triplicates.

[2] = In vitro cytotoxicity assay with XTT dye, T-Jurkat; format: cell-based, human; conditions: human, T-Jurkat cell line, […], trypan blue exclusion
Protocol: as §1, §2

[3] = in vitro; conditions: human
Protocol: (§4) Cell proliferation was analysed using flow cytometry. The results are expressed as the mean ± SD.
(§5) PBMCs and T-Jurkat cells were washed twice with warm PBS (37 °C), suspended in fresh PBS at a final concentration of 10–30 × 10^6 cells/mL and labelled with 1 µL of VPD450 (BD Biosciences, Franklin Lakes, NJ) at 37 °C for 15 min. Each 5 min cells were vortexed to provide uniform staining[42]^,[43]. Subsequently, cells were washed with PBS and then with complete medium (X-VIVO20 for PBMCs and RPMI-1640 for T-Jurkat cells). After this step, cells were suspended in fresh complete medium, seeded on 96-well plates (1 × 10^6 cells/well). PBMCs were additionally stimulated with magnetic beads coated with anti-CD3 and anti-CD28 antibodies (Invitrogen, Carlsbad, CA) in 1:0.5 cell:bead ratio. Of 100 µL of examined derivatives of MPA were added to experimental wells to receive final concentrations: 100; 10; 1; 0.1; 0.01 µM. In parallel, stained and not stimulated cells, as well as stained and stimulated cells, were seeded in the same concentration as controls. After 48 h for T-Jurkat and 72 h for PBMCs, cells were analysed with flow cytometer LSRFortessa (BD Biosciences, Franklin Lakes, NJ) and Kaluza C Flow Cytometry Analysis Software (Beckman Coulter, Brea, CA). […] Cell viability was determined at the highest concentration of the tested compound. For this purpose, TC20 cell counter (Biorad) was used with trypan blue exclusion.

[4] = Dye-based proliferation assay VPD450 (flow cytometry), T-Jurkat; format: cell-based, human; conditions: human, VPD450-labelled T-Jurkat cells, […], trypan blue exclusion
Protocol: (§3) Figure 4. […] Cell proliferation was analysed using flow cytometry.

[5] = system: PBMCs; test: cells; conditions: Homo sapiens, PBMC, 72 h, read-out: EC50 PBMCs (VPD450 proliferation), PBMCs stimulated with anti-CD3/anti-CD28 beads, 72 h
Protocol: as §4, §5

[6] = system: T-Jurkat cell line; test: In vitro cytotoxicity assay with XTT dye, T-Jurkat; format: cell-based, human; conditions: Homo sapiens, 48 h incubation then 24 h XTT, read-out: IC50 T-Jurkat (XTT test)
Protocol: as §1, §2

[7] = system: T-Jurkat cells; test: Dye-based proliferation assay VPD450 (flow cytometry), T-Jurkat; format: cell-based, human; conditions: Homo sapiens, 48 h
Protocol: as §3

[8] = system: PBMCs; test: VPD450 proliferation of PBMCs with or without GMP (IMPDH mechanism test); format: cell-based, human; conditions: for Mechanism of action (IMPDH inhibition, GMP reversal): PBMCs, with or without 50 µM GMP, 72 h
Protocol: According to reported experiment, suppression of cell proliferation caused by IMPDH inhibitors in the presence of guanosine source, e.g. gunosine monophosphate (GMP) is reversible.
Figure 5. […] Cell proliferation was analysed using flow cytometry.
Cells proliferation was analyzed using flow cytometry.
(1 picture or pasted object on this page, not shown here)

[9] = Precipitation / solubility of compounds in culture; format: physicochemical; set-up: key to Precipitating compound flag (XTT test, PBMCs) / Precipitating compound flag (VPD450 assay, PBMCs): (↓) – precipitating compound; conditions: for Precipitating compound flag (VPD450 assay, PBMCs) / Precipitating compound flag (XTT test, PBMCs): PBMC culture, DMSO with Tween20; for Solubility in PBMC culture: XTT assay conditions
Protocol: Drug toxicity that affects the cells can cause a variety of serious side effects, including uncontrolled suppression of the immune system. In order to check the cytotoxicity of the tested compounds, the XTT test was performed, the results of which are presented in Table 2. All tested compounds were characterised by lower cytotoxicity than native MPA. Unfortunately, several compounds (marked with ↓) were partially insoluble in culture despite surfactant addition. They were investigated too, but one could not use them as an immunosuppressive drug in their current form. Taking into account the EC50 values obtained in the proliferation tests ([…] staining, Table 3), the compound A2 was selected as the one with the highest immunosuppressive potential and the possibility of its later use in therapy, and is presented in the graphs (Figures 2–4).
To prepare appropriate concentrations of tested compounds, the substances were dissolved in DMSO (Sigma Aldrich, Poland) with 1% addition of Tween20 to obtain final concentration of 0.01 M. The solution was diluted 10-fold and then 5-fold in appropriate medium without additives (RPMI-1640 for T-Jurkat cell line; X-VIVO20 for PBMCs) to obtain the following concentrations: 200; 20; 2; 0.2; 0.02 µM.

[10] = In vitro cytotoxicity assay with XTT dye, PBMCs; format: cell-based, human; conditions: human, […], trypan blue exclusion
Protocol: as §1, §2

melting point	EC50 [7] [µM]	Precipitating compound flag (VPD450 assay, PBMCs) [9]	Precipitating compound flag (XTT test, PBMCs) [9]	Solubility in PBMC culture [9]	Compound	IC50 [1] [µM]	viability at 48 h, 100 µM [2] [%]	viability at 72 h, 100 µM [3] [%]	viability at 48 h, 100 µM [4] [%]	EC50 [5] [µM]	IC50 [6] [µM]	Mechanism of action (IMPDH inhibition, GMP reversal) [8]	viability at 72 h, 100 µM [10] [%]	Effect of GMP addition on proliferation [8]
					COc1c(C)c2c(c(O)c1C/C=C(\C)CCC(=O)Nc1nc3ccccc3s1)C(=O)OC2 [A1, N-(benzo[d]thiazol-2-yl) mycophenolate]	74.57 ± 0.04	68	82						
253 to 255 °C (dec.)					COc1c(C)c2c(c(O)c1C/C=C(\C)CCC(=O)Nc1nc3ccccc3[nH]1)C(=O)OC2 [A3, N-(1H-benzo[d]imidazol-2-yl) mycophenolate]	94.538 ± 0.047	74		55	120				
175 to 177 °C	14.73 ± 0.074				COc1c(C)c2c(c(O)c1C/C=C(\C)CCC(=O)Nc1ccc3ncsc3c1)C(=O)OC2 [A4, N-(benzo[d]thiazol-6-yl) mycophenolate]	24.639 ± 0.015				62.26 ± 0.01	37.789 ± 0.002			
114 to 117 °C	36.05 ± 0.18				COc1c(C)c2c(c(O)c1C/C=C(\C)CCC(=O)Nc1ccc3scnc3c1)C(=O)OC2 [A5, N-(benzo[d]thiazol-5-yl) mycophenolate]	45.73 ± 0.023				76.98 ± 0.01	75.04 ± 0.005			
84 to 87 °C	13.84 ± 0.069				COc1c(C)c2c(c(O)c1C/C=C(\C)CCC(=O)Nc1ccc3ocnc3c1)C(=O)OC2 [A6, N-(benzo[d]oxazol-5-yl) mycophenolate]	55.487 ± 0.028				58.27 ± 0.021	31.407 ± 0.002			
107 to 110 °C	9.51 ± 0.047				COc1c(C)c2c(c(O)c1C/C=C(\C)CCC(=O)NCc1ncccn1)C(=O)OC2 [A7, N-[1-(pirymidin-2-yl)methyl] mycophenolate]	70.48 ± 0.035				29.45 ± 0.025	10.739 ± 0.003	consistent with that of MPA		
	22.04 ± 0.11	(↓)	(↓)	limited solubility	COc1ccc2nc(NC(=O)CC/C(C)=C/Cc3c(O)c4c(c(C)c3OC)COC4=O)sc2c1 [A8, N-(6-methoxybenzo[d]thiazol-2-yl) mycophenolate]	93.196 ± 0.047				133.5 ± 0.007	51.124 ± 0.008			
257 to 260 °C (dec.)	22.72 ± 0.113	(↓)	(↓)	limited solubility	COc1c(C)c2c(c(O)c1C/C=C(\C)CCC(=O)Nc1nc3ccc(C)cc3s1)C(=O)OC2 [A9, N-(6-methylbenzo[d]thiazol-2-yl) mycophenolate]	94.6 ± 0.047				136.2 ± 0.011	85.7 ± 0.004			
246 to 247 °C (dec.)	26.69 ± 0.133				COc1c(C)c2c(c(O)c1C/C=C(\C)CCC(=O)Nc1nc3cc(C)c(C)cc3s1)C(=O)OC2 [A10, N-(5,6-dimethylbenzo[d]thiazol-2-yl) mycophenolate]	129.41 ± 0.064	51			85.24 ± 0.012				
232 to 236 °C (dec.)	63.21 ± 0.316	(↓)	(↓)	limited solubility	COc1c(C)c2c(c(O)c1C/C=C(\C)CCC(=O)Nc1nc3ccc(F)cc3s1)C(=O)OC2 [A11, N-(6-fluorobenzo[d]thiazol-2-yl) mycophenolate]	139.86 ± 0.07	56			83.07 ± 0.012				
261 to 264 °C (dec.)	12.16 ± 0.061	(↓)	(↓)	limited solubility	COc1c(C)c2c(c(O)c1C/C=C(\C)CCC(=O)Nc1nc3ccc(Cl)cc3s1)C(=O)OC2 [A12, N-(6-chlorobenzo[d]thiazol-2-yl) mycophenolate]	62.975 ± 0.031				38.37 ± 0.017	12.833 ± 0.008			
265 to 267 °C (dec.)	12.64 ± 0.063				COc1c(C)c2c(c(O)c1C/C=C(\C)CCC(=O)Nc1nc3ccc(Br)cc3s1)C(=O)OC2 [A13, N-(6-bromobenzo[d]thiazol-2-yl) mycophenolate]	63.173 ± 0.032				39.47 ± 0.013	58.069 ± 0.002			
261 to 264 °C (dec.)	12.58 ± 0.063				COc1c(C)c2c(c(O)c1C/C=C(\C)CCC(=O)Nc1nc3ccc(C(F)(F)F)cc3s1)C(=O)OC2 [A14, N-[6-(trifluoromethyl)benzo[d]thiazol-2-yl] mycophenolate]	81.482 ± 0.041				30.71 ± 0.008	34.749 ± 0.003			
278 to 280 °C (dec.)	13.37 ± 0.067	(↓)	(↓)	limited solubility	COc1c(C)c2c(c(O)c1C/C=C(\C)CCC(=O)Nc1nc3ccc([N+](=O)[O-])cc3s1)C(=O)OC2 [A15, N-(6-nitrobenzo[d]thiazol-2-yl) mycophenolate]	137.63 ± 0.069				44.59 ± 0.013	12.717 ± 0.005			
165 to 168 °C		(↓)	(↓)	limited solubility	COc1c(C)c2c(c(O)c1C/C=C(\C)CCC(=O)Nc1nc3c(OC)cccc3s1)C(=O)OC2 [A16, N-(4-methoxybenzo[d]thiazol-2-yl) mycophenolate]	54.578 ± 0.027	69		73	46.29 ± 0.011				
173 to 176 °C		(↓)	– (↓)	limited solubility	COc1c(C)c2c(c(O)c1C/C=C(\C)CCC(=O)Nc1nc3c(C)cccc3s1)C(=O)OC2 [A17, N-(4-methylbenzo[d]thiazol-2-yl) mycophenolate]		82		69	82.1			65	
	11.28 ± 0.056				COc1c(C)c2c(c(O)c1C/C=C(\C)CCC(=O)Nc1nc3c(Cl)cccc3s1)C(=O)OC2 [A18, N-(4-chlorobenzo[d]thiazol-2-yl) mycophenolate]	74.426 ± 0.037				14.7 ± 0.02	10.261 ± 0.001	consistent with that of MPA		

Compound	melting point	EC50 [7] [µM]	Precipitating compound flag (VPD450 assay, PBMCs) [9]	Precipitating compound flag (XTT test, PBMCs) [9]	Solubility in PBMC culture [9]	IC50 [1] [µM]	viability at 48 h, 100 µM [2] [%]	viability at 72 h, 100 µM [3] [%]	viability at 48 h, 100 µM [4] [%]	EC50 [5] [µM]	IC50 [6] [µM]	Mechanism of action (IMPDH inhibition, GMP reversal) [8]	viability at 72 h, 100 µM [10] [%]	Effect of GMP addition on proliferation [8]
COc1c(C)c2c(c(O)c1C/C=C(\C)CCC(=O)O)C(=O)OC2 [MPA, Mycophenolic acid]		0.49 ± 0.002				10.52 ± 0.015				0.723 ± 0.011	0.509 ± 0.008			proliferation increases after the addition of GMP
